Experimental data from the NIST ThermoML archive (doi:10.1021/je3007666).

Assay: relative permittivity at zero frequency (dimensionless); xn = mol fraction of the nth substance listed
Settings: 100 kPa, Liquid, Dielectrometer

CC(C)(C)O [2-methylpropan-2-ol] + CCC(C)O
relative permittivity at zero frequency
Settings | 288.15 K | 293.15 K | 298.15 K | 303.15 K | 308.15 K
x1 = 0.0511 | 18.35 | 17.39 | 16.47 | 15.62 | 14.8
x1 = 0.1003 | 18.24 | 17.25 | 16.35 | 15.46 | 14.64
x1 = 0.1512 | 18.11 | 17.13 | 16.22 | 15.31 | 14.47
x1 = 0.199 | 17.97 | 16.98 | 16.06 | 15.15 | 14.28
x1 = 0.2498 | 17.85 | 16.83 | 15.92 | 14.98 | 14.1
x1 = 0.3007 | 17.71 | 16.67 | 15.77 | 14.79 | 13.92
x1 = 0.35 | 17.55 | 16.54 | 15.6 | 14.62 | 13.75
x1 = 0.3997 | 17.42 | 16.36 | 15.44 | 14.44 | 13.54
x1 = 0.4502 | 17.25 | 16.19 | 15.27 | 14.25 | 13.34
x1 = 0.5011 | 17.09 | 16 | 15.09 | 14.05 | 13.14
x1 = 0.5497 | 16.89 | 15.83 | 14.9 | 13.84 | 12.92
x1 = 0.6007 | 16.7 | 15.64 | 14.72 | 13.62 | 12.7
x1 = 0.6511 | 16.5 | 15.42 | 14.5 | 13.41 | 12.47
x1 = 0.701 | 16.28 | 15.17 | 14.26 | 13.17 | 12.23
x1 = 0.7497 | 16.03 | 14.93 | 14.03 | 12.89 | 11.96
x1 = 0.8005 | 15.76 | 14.68 | 13.78 | 12.63 | 11.68
x1 = 0.8488 | 15.49 | 14.39 | 13.5 | 12.32 | 11.39
x1 = 0.9003 | 15.19 | 14.07 | 13.18 | 12.01 | 11.07
x1 = 0.9496 | 14.84 | 13.72 | 12.84 | 11.68 | 10.74
x1 = 1 | 14.49 | 13.38 | 12.49 | 11.34 | 10.4
